The numbers were not newly measured in patent US20220370444A1 (priority 2019, published 2022), which cites them from elsewhere.

The conditions of data set [1]: not told.
The conditions of data set [2]: in vivo.
Another data set concerns TB. The following applies: after two weeks of oral administration.

Take `CC(C)/N=c1\cc2n(-c3ccc(Cl)cc3)c3ccccc3nc-2cc1Nc1ccc(Cl)cc1` [clofazimine]: the membrane permeability result in data set [1] is recorded as “high”. The “absorption in humans after oral administration” value in data set [2] is 45-62%. Further, in the data set with TB, the clinical benefit result is “no clinical benefit”.
